Here are results for 96 compounds from ChEMBL document CHEMBL3507680, “University of Dundee, Gates Library screen for HepG2 cell viability”.

The data set in a line: Human HepG2 cell viability assay in 384 well format. Particulars: HepG2 cells, read-out: Inhibition. Type of data set: toxicity, cell-based. On the set-up: dose 125 nL, time 70.5 hour; cytotoxicity at 70.5 h: concentration not given beside the values.
Turning to `COc1c(F)cc(-c2cccc3c2OC(CN)C3)cc1F` (stereo unspecified), the cytotoxicity at 70.5 h turned out to be 0.0982%.

For `CC(c1cn2ncsc2n1)N1Cc2ncccc2C1=O` (stereo unspecified), the cytotoxicity at 70.5 h was -10.3%.

As to `Cc1nc[nH]c1CN1C[C@@H]2CC[C@H](C1)N(C(=O)c1cnn(C)c1)C2`, the cytotoxicity at 70.5 h was determined as 7.73%.

For `CCOCCn1nc(C)cc1C(=O)N1CCCC[C@H](N(C)C)C1`, the cytotoxicity at 70.5 h was -4.33%.

With `CC(C)n1ccnc1C1CCN(C(=O)c2ccccn2)CC1`, the cytotoxicity at 70.5 h is -6.85%.

Consider `Cc1cccc(C(C(=O)NCC2(Cn3nc(C)cc3C)CC2)N(C)C)c1` (stereo unspecified), for which the cytotoxicity at 70.5 h is -2.42%.

As for `CCOC(=O)CC1(Nc2nc(C)nc3c2cnn3C)CCCCC1`, the cytotoxicity at 70.5 h was -18%.

For the compound `CCCOc1c(CNC2CCSC2)cccc1OC` (stereo unspecified), the cytotoxicity at 70.5 h was -11.2%.

Turning to `Cc1cc(C2CCCN2C(=O)CN2CC3(CCNCC3)OC2=O)on1` (stereo unspecified), the cytotoxicity at 70.5 h is -5.06%.

Take `COc1ccc2[nH]cc(C(=O)N3CC[C@H](CO)[C@@H](O)C3)c(=O)c2c1`: the cytotoxicity at 70.5 h is -6.72%.

With `Fc1cccnc1Oc1cc(F)c(CN2CCCC2)c(F)c1`, the cytotoxicity at 70.5 h is -13.4%.

Turning to `CC(C)n1cnnc1CN(C)Cc1ccoc1`, the cytotoxicity at 70.5 h was -2.84%.

For the compound `O=C1CC(C(=O)N2CCc3sccc3C2)CN1Cc1cccnc1` (stereo unspecified), the cytotoxicity at 70.5 h is 2.13%.

As to `CC(C)[C@H](Nc1cc(-c2ccncc2)nc2ccnn12)C(N)=O`, the cytotoxicity at 70.5 h turned out to be 6.65%.

Turning to `O=C(c1ccc(F)cc1F)N1C[C@H]2CC[C@@H]1CN(Cc1ccccc1)C2`, the cytotoxicity at 70.5 h was -2.62%.

On to `Cc1nc(CN2CCCC(CCc3ccc(F)c(F)c3)C2)c[nH]1` (stereo unspecified), for which the cytotoxicity at 70.5 h is 19.5%.

In the case of `CCn1cc(CN2CCCC2c2nc(C(C)C)no2)cc1C#N` (stereo unspecified), the cytotoxicity at 70.5 h was determined as 21%.

Turning to `COCc1noc(-c2ccc(N(C)Cc3cn(C)nc3C)nc2)n1`, the cytotoxicity at 70.5 h was -5.15%.

On to `Cc1ccc(C2(CN(C)Cc3c(C)nn(C)c3C)CCNCC2)nc1`, for which the cytotoxicity at 70.5 h came out at 19.9%.

`CCn1ncnc1C(C)Nc1cc(C)c2ccc(SC)cc2n1` (stereo unspecified): the cytotoxicity at 70.5 h was -11.1%.

For the compound `O=C(c1ccncc1)N1C[C@@H]2CC[C@H](C1)N(C(=O)C1CCCC1)C2`, the cytotoxicity at 70.5 h was found to be 2.1%.

`CN1CCC(N(C)C[C@H]2CC[C@@H](Cc3ccc4c(cnn4C)c3)O2)CC1`: the cytotoxicity at 70.5 h is -7.57%.

`CCO[C@H]1C[C@@H](O)C12CCN(C1CCN(c3ccccc3)CC1)CC2`: the cytotoxicity at 70.5 h was -5.15%.

For `O=C1CCc2cc(S(=O)(=O)NCc3cc4n(n3)CCNC4)ccc2N1`, the cytotoxicity at 70.5 h was -16.4%.

Take `CC(C)c1nccc(C2CC(=O)Nc3n[nH]c(C4CCC4)c32)n1` (stereo unspecified): the cytotoxicity at 70.5 h turned out to be 2.19%.

On to `COc1cccc(N2CCN(Cc3ccc4[nH]ccc4c3)CC2=O)c1`, for which the cytotoxicity at 70.5 h was -12.1%.

Turning to `CCOC(=O)N1CCCC2(CCN(Cc3ccccc3C#N)C2)C1` (stereo unspecified), the cytotoxicity at 70.5 h is -6.46%.

On to `CSCCC(=O)N1CCCC(c2nccn2Cc2ccncc2)C1` (stereo unspecified), for which the cytotoxicity at 70.5 h was -5.49%.

As to `COc1cc2[nH]c(=O)c(CN3CCC[C@H]3CO)cc2c(OC)c1OC`, the cytotoxicity at 70.5 h came to 14%.

For `CC(C)c1cc(C(=O)N2C[C@H]3CC[C@@H]2CN(Cc2cccnc2)C3)no1`, the cytotoxicity at 70.5 h is -12.5%.

Regarding `Cc1cc(NC2CCN(Cc3ccccn3)CC2)n2nc(C)c(C)c2n1`, the cytotoxicity at 70.5 h stood at 0.979%.

Turning to `C(=C\c1ccc(CN2CCCC2)cn1)/c1ccccc1`, the cytotoxicity at 70.5 h worked out at 6.88%.

Regarding `O=C(NCCC1CN(Cc2cccnc2)CCO1)c1ccsc1` (stereo unspecified), the cytotoxicity at 70.5 h came to 6.62%.

As for `CC(CCc1ncnn1Cc1cccc(Cl)c1)N1CCCC1` (stereo unspecified), the cytotoxicity at 70.5 h was -9.23%.

`Cc1cc(=O)[nH]c(SC(C)C(=O)N2CCC(c3ncc[nH]3)CC2)n1` (stereo unspecified): the cytotoxicity at 70.5 h came out at 0.989%.

Take `Cc1cc(-n2nc(C)nc2-c2cn(CCN)nn2)ccn1`: the cytotoxicity at 70.5 h was -6.15%.

With `Cc1nc(NC2(CN3CCCCC3)CCCCC2)c2cnn(C)c2n1`, the cytotoxicity at 70.5 h was -18.3%.

For `CCc1nc(C)c(CNC(=O)CCCN2CCCCC2)s1`, the cytotoxicity at 70.5 h is -1.08%.

In the case of `CC(NC(=O)c1cc(=O)n(C)c(=O)n1C)c1ccccc1-n1cccn1` (stereo unspecified), the cytotoxicity at 70.5 h stood at 4.9%.

Turning to `CSCC(=O)N[C@H]1CC[C@H](Nc2nccc(-c3ccncc3)n2)C1`, the cytotoxicity at 70.5 h is -0.057%.

As for `CCc1nn(C)c(Cl)c1CN1CCN(c2ccc(C(N)=O)cn2)CC1`, the cytotoxicity at 70.5 h was -8.09%.

With `CNC(=O)CC1COCCN1C(=O)C1(c2ccc(Cl)cc2)CCC1` (stereo unspecified), the cytotoxicity at 70.5 h worked out at 7.35%.

With `CCSc1ncc(CN2CCN(c3ccc(C#N)cc3)C(=O)C2)cn1`, the cytotoxicity at 70.5 h was -8.4%.

On to `O=C(c1ccc2occc2c1)N1CCC(C(=O)O)(n2cccn2)CC1`, for which the cytotoxicity at 70.5 h was -4.27%.

For `CN(C)CCn1ccnc1C1CCCN(c2cc(N)ncn2)C1` (stereo unspecified), the cytotoxicity at 70.5 h turned out to be 23.6%.

`Cn1c(CCC(=O)N2CCC3(CCCO3)CC2)nc2cccnc21`: the cytotoxicity at 70.5 h was -9.63%.

For `c1ccc(COCCN2CCc3[nH]cnc3C2c2ccco2)cc1` (stereo unspecified), the cytotoxicity at 70.5 h is -4.41%.

Turning to `Cc1ccc([C@@H]2CN(C(=O)c3ccoc3C)C[C@H]2NC(=O)C2CC2)cc1`, the cytotoxicity at 70.5 h is 30.5%.

In the case of `Cc1ccc(CN2CC[C@@H](NC(=O)c3cccnc3)[C@H](O)C2)s1`, the cytotoxicity at 70.5 h is -10.7%.

Take `Cc1cccc(-c2ncc(CNC(C)CO)cn2)c1` (stereo unspecified): the cytotoxicity at 70.5 h worked out at 27.8%.

As to `CCn1c(C2CCNCC2)nn(Cc2ccc(C(=O)NC)o2)c1=O`, the cytotoxicity at 70.5 h was -12.2%.

As for `CCC(NC1CCN(S(C)(=O)=O)CC1)c1cccs1` (stereo unspecified), the cytotoxicity at 70.5 h is -15.6%.

As for `Cc1cnc(C(=O)N2CCCC(Cn3cc(CC(C)C)nn3)C2)cn1` (stereo unspecified), the cytotoxicity at 70.5 h was -8.09%.

On to `Cc1cnccc1CN(C)C(=O)c1ccc(Cn2cnnn2)cc1`, for which the cytotoxicity at 70.5 h was found to be 37.3%.

Consider `Nc1ccc(C(=O)N2CCCC(c3nccn3Cc3cscn3)C2)cn1` (stereo unspecified), for which the cytotoxicity at 70.5 h is -3.06%.

Take `CCC(CO)N(Cc1ccccn1)C(=O)c1ccc(=O)[nH]c1` (stereo unspecified): the cytotoxicity at 70.5 h was -4.96%.

Turning to `CCn1c(CN2CCCC2)nnc1C1CCN(Cc2ccccn2)CC1`, the cytotoxicity at 70.5 h is 18.4%.

Consider `CCC[C@@H]1CN(c2ncnc3sccc23)C[C@H]1C(=O)O`, for which the cytotoxicity at 70.5 h was -5.95%.

In the case of `COCc1cc(N(C)Cc2cc(C(C)(C)C)n[nH]2)ncn1`, the cytotoxicity at 70.5 h is -7.91%.

For the compound `Cc1ccc(C(NC(=O)CCCN2CCCCC2)C(=O)O)cc1` (stereo unspecified), the cytotoxicity at 70.5 h is -12.7%.

As for `Cc1cc(C)c(Cn2cncn2)cc1CN1CC[C@H](CO)[C@@H](O)C1`, the cytotoxicity at 70.5 h came out at 6.21%.

Regarding `COCCN1C[C@H]2CC[C@@H]1CN(C(=O)CCc1c(C)nn(C)c1C)C2`, the cytotoxicity at 70.5 h was -3.68%.

Consider `CC(=O)c1cc(C(=O)N2CCC(CC(C)C)C2)c(=O)[nH]c1C` (stereo unspecified), for which the cytotoxicity at 70.5 h was -12.6%.

Regarding `Cc1nc2c(c(N[C@@H](CO)C(N)=O)n1)Cc1ccccc1OC2`, the cytotoxicity at 70.5 h is -9.03%.

For the compound `CC(=O)c1cccc(CN2CC(Oc3ccccc3C)C2)c1`, the cytotoxicity at 70.5 h was -3.39%.

On to `Cc1cc(C)n(CCCN(CCN2CCOCC2)Cc2ccco2)n1`, for which the cytotoxicity at 70.5 h was -4.4%.

In the case of `CNC(=O)[C@@H]1C[C@H](n2cc(-c3ccc(CN4CC=CC4)cc3)nn2)CN1`, the cytotoxicity at 70.5 h turned out to be 27%.

`O=C1CCC2(CCN(c3cccc(C(F)(F)F)n3)CC2)CN1CCO`: the cytotoxicity at 70.5 h was -5.14%.

`O=C1CCCN1C1CCCN(CCOc2ccc(F)cc2)C1` (stereo unspecified): the cytotoxicity at 70.5 h is -6.91%.

With `CC(C)CN(Cc1ccsc1)C(=O)CCCn1cncn1`, the cytotoxicity at 70.5 h is -0.11%.

For `CCOC(=O)C1CCCCN1Cc1c[nH]nc1-c1cc2ccccc2o1` (stereo unspecified), the cytotoxicity at 70.5 h was -7.32%.

With `CN1CSC[C@H]1C(=O)N1CCC(CCc2ccccc2)CC1`, the cytotoxicity at 70.5 h is -5.84%.

`Cn1c(N2CC[C@H](O)C2)nc2cc(C(N)=O)ccc21`: the cytotoxicity at 70.5 h is 5.31%.

Regarding `Cc1cc(C)c2[nH]c(=O)c(CN3CCC(O)(CN(C)C)C3)cc2c1` (stereo unspecified), the cytotoxicity at 70.5 h is -15.6%.

`Cc1nc(CCN2CCCCC2)n(-c2ccc(F)cc2)n1`: the cytotoxicity at 70.5 h is 16.5%.

Take `CCOCCc1nc(CCc2ccccc2)n[nH]1`: the cytotoxicity at 70.5 h is -6.03%.

In the case of `Cc1ccc(C(=O)NCCC2CN(c3cnn(C)c(=O)c3)CCO2)s1` (stereo unspecified), the cytotoxicity at 70.5 h is -3.44%.

With `CCc1ccc(C(=O)N2CC[C@](C)(O)[C@H](C)C2)[nH]1`, the cytotoxicity at 70.5 h is -7.19%.

Turning to `CCOC(=O)CNC(=O)N1CCOC(CCc2ccccc2)C1` (stereo unspecified), the cytotoxicity at 70.5 h amounted to 15.8%.

With `CN(CCCN1CCOCC1)[C@@H]1c2ccccc2C2(CCNCC2)[C@H]1O`, the cytotoxicity at 70.5 h was -7.93%.

`Cc1cn2cc(C(=O)NC3CCCN(c4ncccn4)C3)ccc2n1` (stereo unspecified): the cytotoxicity at 70.5 h turned out to be 1.08%.

For the compound `CCN1CC(CN(C)Cc2nc(-c3ccc(F)cc3)oc2C)CC1=O` (stereo unspecified), the cytotoxicity at 70.5 h stood at 4.29%.

Turning to `Cc1cc2[nH]c(=O)oc2cc1S(=O)(=O)N1CCC(N2CCCC2=O)CC1`, the cytotoxicity at 70.5 h was -9.07%.

`Cc1nonc1CC(=O)N1CCC2(CCCN(C3CCOCC3)C2=O)C1` (stereo unspecified): the cytotoxicity at 70.5 h was -5.27%.

Regarding `O=C(NN1CCCc2ccccc21)c1c[nH]c(=O)[nH]1`, the cytotoxicity at 70.5 h was -7.94%.

In the case of `COc1cccc(C(=O)N(C)C(C)c2c(C)n[nH]c2C)c1OC` (stereo unspecified), the cytotoxicity at 70.5 h was -5.83%.

As for `CCc1nccn1CCCNc1nccc(-c2c(C)nn(C)c2C)n1`, the cytotoxicity at 70.5 h is -16.7%.

Turning to `Cc1cnccc1CN(C)Cc1c[nH]nc1-c1ccc(F)cc1F`, the cytotoxicity at 70.5 h stood at 3.5%.

As for `O=C(COc1ccc(F)cc1F)N1CCOCC(O)(CN2CCCC2)C1` (stereo unspecified), the cytotoxicity at 70.5 h was -2.46%.

On to `CC1CN(c2ccccc2Cl)C(=O)CN1C(=O)c1c[nH]c(=O)c(Cl)c1` (stereo unspecified), for which the cytotoxicity at 70.5 h is -0.811%.

Take `Cc1noc(C)c1CN1C[C@@H](C(=O)O)[C@H](c2ccccc2)C1`: the cytotoxicity at 70.5 h was -5.34%.

On to `CN(Cc1cccnc1N)Cc1cccc2ncccc12`, for which the cytotoxicity at 70.5 h is -15.9%.

In the case of `COCc1ccc(C(=O)N2CCC(c3nccn3CC3CC3)CC2)o1`, the cytotoxicity at 70.5 h is -0.956%.

In the case of `CC(=O)NCc1cc2n(n1)CCN(Cc1cc(-c3ccccc3)no1)C2`, the cytotoxicity at 70.5 h was -18.6%.

Turning to `Cc1ccc2nc(C)cc(C(=O)N[C@H]3COC[C@@H]3N3CCOCC3)c2c1`, the cytotoxicity at 70.5 h was -6.73%.

Take `Cc1n[nH]c(C)c1Sc1ccccc1NC(=O)N1CCCC(C(N)=O)C1` (stereo unspecified): the cytotoxicity at 70.5 h amounted to 5.35%.
